Measured values from EP1581477B1, “CYCLOALKENE DICARBOXYLIC ACID COMPOUNDS AS ANTI-INFLAMMATORY, IMMUNOMODULATORY AND ANTI-PROLIFERATORY AGENTS” (4SC AG, priority 2002, dated 2004).

These compounds were tested against T1, human DHODH (Homo sapiens, UniProt Q02127) (assay: Inhibition assay of DHODH activity (spectrophotometric, 2,6-dichloroindophenol reduction)). Conditions: recombinant human DHODH; 50 mM TrisHCl, pH 8,0, 30°C; absorption at 600 nm.
T1 construct: Prof; M. Löffler, Marburg, Germany (gift)
T1 sequence (Q02127 whole entry): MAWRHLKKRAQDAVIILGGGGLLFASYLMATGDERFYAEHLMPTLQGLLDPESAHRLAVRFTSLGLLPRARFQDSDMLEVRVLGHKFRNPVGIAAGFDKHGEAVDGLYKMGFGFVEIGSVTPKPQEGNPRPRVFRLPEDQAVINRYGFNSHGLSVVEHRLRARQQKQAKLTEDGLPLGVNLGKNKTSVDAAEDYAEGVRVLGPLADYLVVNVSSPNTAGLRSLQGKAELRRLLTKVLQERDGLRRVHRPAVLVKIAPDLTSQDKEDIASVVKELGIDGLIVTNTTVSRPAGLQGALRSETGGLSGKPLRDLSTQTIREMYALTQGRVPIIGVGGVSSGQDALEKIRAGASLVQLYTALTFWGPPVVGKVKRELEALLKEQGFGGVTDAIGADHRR
Assay type: biochemical
Procedure: 3. Inhibition Assay of DHODH activity
The standard assay mixture contained 50 µM decyclo ubichinone, 100 µM dihydroorotate, 60 µM 2,6-dichloroindophenol, as well as 20 mU DHODH The volume activity of the recombinant enzyme used was 30 U/ml. Measurements were conducted in 50 mM TrisHCl (150 mM KCI, 0,1% Triton X-100, pH 8,0) at 30°C in a final volume of 1 ml. The components were mixed, and the reaction was started by adding dihydroorotate. The course of reaction was followed by spectrophotometrically measuring the decrease in absorption at 600 nm for 2 min.
Inhibitory studies were conducted in a standard assay with additional variable amounts of inhibitor.
These investigations were carried out with recombinant human as well as with recombinant murine DHODH provided by Prof. M. Löffler, Marburg, Germany [M. Löffler, Chem. Biol. Interact. 124, (2000), 61-76].
“2-(1',3'di-methoxy-3,5-difluoro-biphenyl-4-ylcarbamoyl)-3-hydroxy-cyclopent-1-enecarboxylic acid [Example 9]” gave an IC50 of under 5000 nM. Work on “2-(1',3'di-methoxy-3,5-difluoro-biphenyl-4-ylcarbamoyl)-5-hydroxy-cyclopent-1-enecarboxylic acid [Example 10]” yielded an IC50 of under 5000 nM. Compound COc1cccc(-c2ccc(NC(=O)C3=C(C(=O)O)C(C(=O)O)CC3)c(F)c2)c1 (stereo not drawn) [Example 1, 3-(3-Fluoro-3'-methoxy-biphenyl-4-ylcarbamoyl)-cyclopent-2-ene-1,2-dicarboxylic acid] has an IC50 of over 5000 nM. Work on COc1cccc(-c2ccc(NC(=O)C3=C(C(=O)O)CCC3C(=O)O)c(F)c2)c1 (stereo not drawn) [Example 2, 2-(3-Fluoro-3'-methoxy-biphenyl-4-ylcarbamoyl)-cyclopent-1-ene-1,3-dicarboxylic acid] yielded an IC50 of over 5000 nM. Compound COC(=O)C1=C(C(=O)Nc2ccc(-c3cccc(OC)c3)cc2F)CCC1 [Example 3, 2-(3-Fluoro-3'-methoxy-biphenyl-4-ylcarbamoyl)-cyclopent-1-enecarboxylic acid methyl ester] has an IC50 of over 5000 nM. For O=C(O)C1=C(C(=O)Nc2c(F)c(F)c(-c3cccc(OC(F)(F)F)c3)c(F)c2F)C(O)CC1 (stereo not drawn) [Example 5, 3-Hydroxy-2-(2,3,5,6-tetrafluoro-3'-trifluoromethoxy-biphenyl-4-ylcarbamoyl)-cyclopent-1-enecarboxylic acid], the IC50 was under 1000 nM. O=C(O)C1=C(C(=O)Nc2c(F)c(F)c(-c3cccc(OC(F)(F)F)c3)c(F)c2F)CCC1O (stereo not drawn) [Example 6, 5-Hydroxy-2-(2,3,5,6-tetrafluoro-3'-trifluoromethoxy-biphenyl-4-ylcarbamoyl)-cyclopent-1-enecarboxylic acid] showed an IC50 of under 1000 nM. CCOc1cccc(-c2cc(F)c(NC(=O)C3=C(C(=O)O)CCC3O)c(F)c2)c1 (stereo not drawn) [Example 7, 2-(3'-Ethoxy-3,5-difluoro-biphenyl-4-ylcarbamoyl)-3-hydroxy-cyclopent-1-enecarboxylic acid] showed an IC50 of under 1000 nM. CCOc1cccc(-c2cc(F)c(NC(=O)C3=C(C(=O)O)C(O)CC3)c(F)c2)c1 (stereo not drawn) [Example 8, 2-(3'-Ethoxy-3,5-difluoro-biphenyl-4-ylcarbamoyl)-5-hydroxy-cyclopent-1-enecarboxylic acid] was tested, and the IC50 was under 1000 nM. Work on O=C(O)C1=C(C(=O)Nc2c(F)cc(-c3ccccc3F)cc2F)C(O)CC1 (stereo not drawn) [Example 11, 3-Hydroxy-2-(3,5,2'-trifluoro-biphenyl-4-ylcarbamoyl)-cyclopent-1-enecarboxylic acid] yielded an IC50 of under 1000 nM. Compound COc1ccccc1-c1ccc(NC(=O)C2=C(C(=O)O)CCC2O)cc1Cl (stereo not drawn) [Example 13, 2-(2-Chloro-2'-methoxy-biphenyl-4-ylcarbamoyl)-3-hydroxy-cyclopent-1-enecarboxylic acid] has an IC50 of under 1000 nM. COc1ccccc1-c1ccc(NC(=O)C2=C(C(=O)O)C(O)CC2)cc1Cl (stereo not drawn) [Example 14, 2-(2-Chloro-2'-methoxy-biphenyl-4-ylcarbamoyl)-5-hydroxy-cyclopent-1-enecarboxylic acid] was tested, and the IC50 was under 1000 nM. For O=C(O)C1=C(C(=O)Nc2c(F)cc(-c3ccccc3Cl)cc2F)C(O)CC1 (stereo not drawn) [Example 15, 2-(2'-Chloro-3,5-difluoro-biphenyl-4-ylcarbamoyl)-3-hydroxy-cyclopent-1-enecarboxylic acid], the IC50 was under 1000 nM. In the case of O=C(O)C1=C(C(=O)Nc2c(F)cc(-c3ccccc3Cl)cc2F)CCC1O (stereo not drawn) [Example 16, 2-(2'-Chloro-3,5-difluoro-biphenyl-4-ylcarbamoyl)-5-hydroxy-cyclopent-1-enecarboxylic acid], the IC50 is reported as under 1000 nM. With COc1cccc(-c2ccc(NC(=O)C3=C(C(=O)O)CCC3O)c(F)c2)c1 (stereo not drawn) [Example 17, 2-(3-Fluoro-3'-methoxy-biphenyl-4-ylcarbamoyl)-3-hydroxy-cyclopent-1-enecarboxylic acid] the IC50 was under 1000 nM.
